Measured values as given in the supplement of paper PMC4862054.

System: MDA-MB-468
Experiment: normalised response (% of control), CellTox Green; higher = less cell death (100 = DMSO, 0 = benzethonium chloride kill control)
Settings: incubation time: 72 h
Outline: (§1)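 Every value is a normalised signal taken at one concentration of a dilution series. Compound was placed in 384-well plates at 5 concentrations in 10-fold steps over a compound-specific 10,000-fold range, and 20 µl of breast cancer cell suspension was seeded onto it. After 72 h, CellTox Green fluorescence (485/520 nm) was measured first and CellTiter-Glo luminescence second, following 10 min at room temperature. Each plate was scaled to 0.1 % DMSO (100) and a positive kill control (0).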

| SMILES | normalised response [%] |
| --- | --- |
| CS(=O)(=O)c1ccc(C2=C(c3ccccc3)C(=O)OC2)cc1 [Rofecoxib] (1000 nM) | 127 |

System: MFM-223
Experiment: as above
Settings: incubation time: 72 h
Outline: as §1

| SMILES | normalised response [%] |
| --- | --- |
| CC(C)Cn1cnc2c(N)nc3ccccc3c21 [Imiquimod] (250 nM) | 92.9 |
| O=C(CCCCCCC(=O)Nc1ccc([C@H]2O[C@@H](CSc3nc(-c4ccccc4)c(-c4ccccc4)o3)C[C@@H](c3ccc(CO)cc3)O2)cc1)NO [Tubacin] (1000 nM) | 86.1 |
| COc1cc2ncnc(Nc3ccc(F)c(Cl)c3)c2cc1NC(=O)/C=C/CN1CCCCC1 [Dacomitinib] (100 nM) | 100 |
| CS(=O)(=O)c1ccc(C2=C(c3ccccc3)C(=O)OC2)cc1 [Rofecoxib] (1000 nM) | 103 |
| CNCc1ccc(-c2[nH]c3cc(F)cc4c3c2CCNC4=O)cc1 [Rucaparib] (100 nM) | 73.3 |

System: MDA-MB-231
Experiment: as above
Settings: incubation time: 72 h
Outline: as §1

| SMILES | normalised response [%] |
| --- | --- |
| CC(C)Cn1cnc2c(N)nc3ccccc3c21 [Imiquimod] (250 nM) | 102 |
| O=C(CCCCCCC(=O)Nc1ccc([C@H]2O[C@@H](CSc3nc(-c4ccccc4)c(-c4ccccc4)o3)C[C@@H](c3ccc(CO)cc3)O2)cc1)NO [Tubacin] (1000 nM) | 88.2 |
| COc1cc2ncnc(Nc3ccc(F)c(Cl)c3)c2cc1NC(=O)/C=C/CN1CCCCC1 [Dacomitinib] (100 nM) | 109 |
| CS(=O)(=O)c1ccc(C2=C(c3ccccc3)C(=O)OC2)cc1 [Rofecoxib] (1000 nM) | 112 |
| CNCc1ccc(-c2[nH]c3cc(F)cc4c3c2CCNC4=O)cc1 [Rucaparib] (100 nM) | 87 |

System: Hs578T
Experiment: as above
Settings: incubation time: 72 h
Outline: as §1

| SMILES | normalised response [%] |
| --- | --- |
| CC(C)Cn1cnc2c(N)nc3ccccc3c21 [Imiquimod] (250 nM) | 54.6 |
| O=C(CCCCCCC(=O)Nc1ccc([C@H]2O[C@@H](CSc3nc(-c4ccccc4)c(-c4ccccc4)o3)C[C@@H](c3ccc(CO)cc3)O2)cc1)NO [Tubacin] (1000 nM) | 93.4 |
| COc1cc2ncnc(Nc3ccc(F)c(Cl)c3)c2cc1NC(=O)/C=C/CN1CCCCC1 [Dacomitinib] (100 nM) | 101 |
| CS(=O)(=O)c1ccc(C2=C(c3ccccc3)C(=O)OC2)cc1 [Rofecoxib] (1000 nM) | 108 |
| CNCc1ccc(-c2[nH]c3cc(F)cc4c3c2CCNC4=O)cc1 [Rucaparib] (100 nM) | 108 |

System: HCC1599
Experiment: as above
Settings: incubation time: 72 h
Outline: as §1

| SMILES | normalised response [%] |
| --- | --- |
| CC(C)Cn1cnc2c(N)nc3ccccc3c21 [Imiquimod] (250 nM) | 97.7 |
| O=C(CCCCCCC(=O)Nc1ccc([C@H]2O[C@@H](CSc3nc(-c4ccccc4)c(-c4ccccc4)o3)C[C@@H](c3ccc(CO)cc3)O2)cc1)NO [Tubacin] (1000 nM) | 97.9 |
| COc1cc2ncnc(Nc3ccc(F)c(Cl)c3)c2cc1NC(=O)/C=C/CN1CCCCC1 [Dacomitinib] (100 nM) | 99.1 |
| CS(=O)(=O)c1ccc(C2=C(c3ccccc3)C(=O)OC2)cc1 [Rofecoxib] (1000 nM) | 100 |
| CNCc1ccc(-c2[nH]c3cc(F)cc4c3c2CCNC4=O)cc1 [Rucaparib] (100 nM) | 94.4 |

System: HDQ-P1
Experiment: as above
Settings: incubation time: 72 h
Outline: as §1

| SMILES | normalised response [%] |
| --- | --- |
| CC(C)Cn1cnc2c(N)nc3ccccc3c21 [Imiquimod] (250 nM) | 104 |
| O=C(CCCCCCC(=O)Nc1ccc([C@H]2O[C@@H](CSc3nc(-c4ccccc4)c(-c4ccccc4)o3)C[C@@H](c3ccc(CO)cc3)O2)cc1)NO [Tubacin] (1000 nM) | 72.7 |
| COc1cc2ncnc(Nc3ccc(F)c(Cl)c3)c2cc1NC(=O)/C=C/CN1CCCCC1 [Dacomitinib] (100 nM) | 89.4 |
| CS(=O)(=O)c1ccc(C2=C(c3ccccc3)C(=O)OC2)cc1 [Rofecoxib] (1000 nM) | 82 |
| CNCc1ccc(-c2[nH]c3cc(F)cc4c3c2CCNC4=O)cc1 [Rucaparib] (100 nM) | 104 |

System: HCC1143
Experiment: as above
Settings: incubation time: 72 h
Outline: as §1

| SMILES | normalised response [%] |
| --- | --- |
| CC(C)Cn1cnc2c(N)nc3ccccc3c21 [Imiquimod] (250 nM) | 99.4 |
| O=C(CCCCCCC(=O)Nc1ccc([C@H]2O[C@@H](CSc3nc(-c4ccccc4)c(-c4ccccc4)o3)C[C@@H](c3ccc(CO)cc3)O2)cc1)NO [Tubacin] (1000 nM) | 105 |
| COc1cc2ncnc(Nc3ccc(F)c(Cl)c3)c2cc1NC(=O)/C=C/CN1CCCCC1 [Dacomitinib] (100 nM) | 102 |
| CS(=O)(=O)c1ccc(C2=C(c3ccccc3)C(=O)OC2)cc1 [Rofecoxib] (1000 nM) | 116 |
| CNCc1ccc(-c2[nH]c3cc(F)cc4c3c2CCNC4=O)cc1 [Rucaparib] (100 nM) | 104 |

System: MDA-MB-453
Experiment: as above
Settings: incubation time: 72 h
Outline: as §1

| SMILES | normalised response [%] |
| --- | --- |
| CC(C)Cn1cnc2c(N)nc3ccccc3c21 [Imiquimod] (250 nM) | 103 |
| O=C(CCCCCCC(=O)Nc1ccc([C@H]2O[C@@H](CSc3nc(-c4ccccc4)c(-c4ccccc4)o3)C[C@@H](c3ccc(CO)cc3)O2)cc1)NO [Tubacin] (1000 nM) | 103 |
| COc1cc2ncnc(Nc3ccc(F)c(Cl)c3)c2cc1NC(=O)/C=C/CN1CCCCC1 [Dacomitinib] (100 nM) | 87.4 |
| CS(=O)(=O)c1ccc(C2=C(c3ccccc3)C(=O)OC2)cc1 [Rofecoxib] (1000 nM) | 108 |
| CNCc1ccc(-c2[nH]c3cc(F)cc4c3c2CCNC4=O)cc1 [Rucaparib] (100 nM) | 102 |

System: MDA-MB-436
Experiment: as above
Settings: incubation time: 72 h
Outline: as §1

| SMILES | normalised response [%] |
| --- | --- |
| CC(C)Cn1cnc2c(N)nc3ccccc3c21 [Imiquimod] (250 nM) | 107 |
| O=C(CCCCCCC(=O)Nc1ccc([C@H]2O[C@@H](CSc3nc(-c4ccccc4)c(-c4ccccc4)o3)C[C@@H](c3ccc(CO)cc3)O2)cc1)NO [Tubacin] (1000 nM) | 90.3 |
| COc1cc2ncnc(Nc3ccc(F)c(Cl)c3)c2cc1NC(=O)/C=C/CN1CCCCC1 [Dacomitinib] (100 nM) | 96.8 |
| CS(=O)(=O)c1ccc(C2=C(c3ccccc3)C(=O)OC2)cc1 [Rofecoxib] (1000 nM) | 99.2 |
| CNCc1ccc(-c2[nH]c3cc(F)cc4c3c2CCNC4=O)cc1 [Rucaparib] (100 nM) | 83.3 |

System: BT-474
Experiment: as above
Settings: incubation time: 72 h
Outline: as §1

| SMILES | normalised response [%] |
| --- | --- |
| CC(C)Cn1cnc2c(N)nc3ccccc3c21 [Imiquimod] (250 nM) | 88.2 |
| O=C(CCCCCCC(=O)Nc1ccc([C@H]2O[C@@H](CSc3nc(-c4ccccc4)c(-c4ccccc4)o3)C[C@@H](c3ccc(CO)cc3)O2)cc1)NO [Tubacin] (1000 nM) | 95.5 |
| COc1cc2ncnc(Nc3ccc(F)c(Cl)c3)c2cc1NC(=O)/C=C/CN1CCCCC1 [Dacomitinib] (100 nM) | 70.4 |
| CS(=O)(=O)c1ccc(C2=C(c3ccccc3)C(=O)OC2)cc1 [Rofecoxib] (1000 nM) | 102 |
| CNCc1ccc(-c2[nH]c3cc(F)cc4c3c2CCNC4=O)cc1 [Rucaparib] (100 nM) | 95.5 |
